IC50 data for 16 molecules are collected here from patent publication US12612410B2 (CHILDREN'S HOSPITAL MEDICAL CENTER, priority 2020, dated 2026).

The target of assay [1] is T1, IRAK4 (Homo sapiens, UniProt Q9NWZ3).
T1 sequence (Q9NWZ3 1-460): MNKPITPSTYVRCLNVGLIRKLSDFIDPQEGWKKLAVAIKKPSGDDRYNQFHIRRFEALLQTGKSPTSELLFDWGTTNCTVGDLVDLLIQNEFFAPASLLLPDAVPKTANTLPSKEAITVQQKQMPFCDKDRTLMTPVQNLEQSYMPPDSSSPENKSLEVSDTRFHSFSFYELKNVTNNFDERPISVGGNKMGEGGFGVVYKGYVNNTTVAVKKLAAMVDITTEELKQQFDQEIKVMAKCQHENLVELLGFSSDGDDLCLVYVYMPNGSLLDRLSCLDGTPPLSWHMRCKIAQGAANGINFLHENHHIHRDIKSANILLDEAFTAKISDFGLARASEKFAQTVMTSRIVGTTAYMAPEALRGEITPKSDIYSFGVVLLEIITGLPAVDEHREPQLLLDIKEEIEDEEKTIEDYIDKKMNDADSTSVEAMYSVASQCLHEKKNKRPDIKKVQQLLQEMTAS
Briefly: Reaction Biology NanoBRET target engagement assay, IRAK4. The class given is cell-based. The note with it: transfected HEK-293 cells. The source says:
The NanoBRET assay measures kinase engagement in real time in the context of the intact cell. Unlike the previously described biochemical kinase assay methodologies in Examples 26-27, the NanoBRET assay measures the binding and activity characteristics under equilibrium conditions using full-length kinases in the presence of cellular concentrations of ATP in live, uncompromised cells. As such, the assay provides a more relevant assessment of kinase potency and selectivity that would be expected to be observed in the native cellular environment, where potency is often considerably lower than that observed in the isolated biochemical assays (Vasta, J. D. et al., (2018) Cell Chem. Biol. 25, 206-214). The assay uses a Kinase-NanoLuc® fusion vector expressing a kinase protein to which a luciferase tag has been added, a cell-permeant fluorescent NanoBRET™ tracer, a NanoLuc® substrate, and an extracellular NanoLuc® inhibitor. Upon expression of the luciferase-tagged kinase, cells will produce a strong BRET signal only in the presence of the NanoBRET™ tracer. The extracellular NanoLuc® inhibitor ensures that the BRET signal observed emanates only from live cells. Because the BRET signal has tight distance constraints, addition of the test compound will decrease the BRET signal if the compound competes with the NanoBRET™ tracer for binding to the kinase domain. Under the appropriate tracer conditions established by the manufacturer, quantitative intracellular affinity and relative potency can then be determined using Mass Action model equations.
HEK-293 cells were purchased from ATCC. FuGENEHD Transfection Reagent, Kinase-NanoLucfusion plasmids, Transfection Carrier DNA, NanoBRETTracers and dilution buffer, NanoBRETNano-Glo Substrate, Extracellular NanoLucInhibitor were obtained from Promega.
Assays were conducted following Promega assay protocol with some modifications. HEK-293 Cells were transiently transfected with Kinase-NanoLucFusion Vector DNA by FuGENEHD Transfection Reagent. Testing compounds were delivered into 384 well assay plate by Echo 550 (Labcytelnc, Sunnyvale, CA). Transfected cells were harvested and mixed with NanoBRETTracer Reagent and dispensed into 384 well plates and incubated at 37° C. in 5% CO2 cell culture incubator for 1 hour. The NanoBRETNano-Glo Substrate plus Extracellular NanoLucInhibitor Solution were added into the wells of the assay plate and incubated for 2-3 minutes at room temperature. The donor emission wavelength (460 nm) and acceptor emission wavelength (600 nm) were measured in the EnVisionplate reader. The BRET Ratios were calculated. BRET Ratio=[(Acceptor sample÷Donor sample)−(Acceptor no-tracer control÷Donor no-tracer control)]. The IC50 values of compounds were calculated with Prism GraphPad program.
NanoBRET™ Target Engagement Assay Protocol
1. Transient Transfection of HEK-293 Cells NanoLuc® Fusion Vector DNA
• 1). Cultivate HEK-293 cells (70-80% confluence) appropriately prior to assay. Trypsinize and collect HEK-293 cells. • 2). Prepare lipid: DNA complexes as follows: • a. Prepare a […] solution of DNA in Opti-MEM without serum that consists of the following ratios of carrier DNA and DNA encoding NanoLuc® fusion. 9.0 µg/mL of Transfection Carrier DNA, […] of NanoLuc fusion vector DNA and 1 mL of Opti-MEM without phenol red. Mix thoroughly. • b. Add 30 l of FuGENE HD Transfection Reagent into each milliliter of DNA mixture to form lipid: DNA complex. • c. Mix by inversion 10 times. • d. Incubate at ambient temperature for 20 minutes to allow complexes to form. • 3). In a sterile, conical tube, mix 1 part of lipid: DNA complex with 20 parts of HEK-293 cells in suspension. Mix gently by inversion 5 times. • 4). Dispense cells+lipid: DNA complex into a sterile tissue culture dish and incubate for 22-24 hours. 2. Addition of Test Compounds (dry plate shooting)
Each test compound is delivered from the compound source plate to the wells of 384-well white NBS plate by Echo 550.
3. […]

Another assay concerns the target T2, IRAK1 (Homo sapiens, UniProt P51617).
T2 construct: purchased Reaction Biology (RBC), HotSpot kinase assay
Briefly: RBC HotSpot Kinase Assay, IRAK1. The note with it: isolated kinase, 33P-ATP. In kind it is biochemical. Summed up:
(§1)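 Steps: substrate in reaction buffer (20 mM Hepes pH 7.5, 10 mM MgCl2, 2 mM DTT, 1% DMSO); cofactors added; kinase added; compound dispensed acoustically, 20 min RT; 33P-ATP added; 2 h RT; P81 filter capture.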

Assay [2] has as its target T1, IRAK4. Briefly: RBC HotSpot Kinase Assay, IRAK4. The class given is biochemical. Set-up: purchased Reaction Biology (RBC), HotSpot kinase assay. The note with it: isolated kinase, 33P-ATP. Summed up: as §1

T2 sequence (P51617 whole entry): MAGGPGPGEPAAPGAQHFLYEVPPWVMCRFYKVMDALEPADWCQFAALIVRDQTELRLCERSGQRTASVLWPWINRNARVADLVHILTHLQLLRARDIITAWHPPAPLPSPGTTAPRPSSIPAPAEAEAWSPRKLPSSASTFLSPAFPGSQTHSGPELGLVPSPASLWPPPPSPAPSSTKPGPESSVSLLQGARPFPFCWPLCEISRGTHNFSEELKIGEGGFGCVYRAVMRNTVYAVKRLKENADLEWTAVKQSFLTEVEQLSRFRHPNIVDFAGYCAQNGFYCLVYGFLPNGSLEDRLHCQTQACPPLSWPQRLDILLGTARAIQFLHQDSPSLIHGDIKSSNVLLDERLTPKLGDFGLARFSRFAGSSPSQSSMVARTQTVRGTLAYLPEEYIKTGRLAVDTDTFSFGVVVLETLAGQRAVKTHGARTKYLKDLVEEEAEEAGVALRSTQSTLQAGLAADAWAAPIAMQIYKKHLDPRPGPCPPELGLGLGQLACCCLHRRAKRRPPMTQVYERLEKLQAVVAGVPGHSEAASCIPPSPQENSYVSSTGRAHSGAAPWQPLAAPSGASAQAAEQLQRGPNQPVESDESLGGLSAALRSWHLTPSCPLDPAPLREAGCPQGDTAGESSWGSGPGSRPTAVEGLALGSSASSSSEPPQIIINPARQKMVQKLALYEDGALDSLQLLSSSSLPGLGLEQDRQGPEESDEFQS

In the case of `CC(C)(O)c1cn2c(-c3nc(N[C@H]4CNCC[C@@H]4F)c(F)cc3F)cnc2cn1` [Compound 35, 2-(3-(3,5-difluoro-6-(((3S,4S)-4-fluoropiperidin-3-yl)amino)pyridin-2-yl)imidazo[1,2-a]pyrazin-6-yl)propan-2-ol], the IC50 is under 0.5 nM against IRAK4 [1], 45 nM on IRAK1 and 0.8 nM against IRAK4 [2].

For the molecule `FC(F)(F)COc1cn2c(-c3cccc(N[C@@H]4CCNC4)n3)cnc2cn1` [Compound 38, (R)-N-(pyrrolidin-3-yl)-6-(6-(2,2,2-trifluoroethoxy)imidazo[1,2-a]pyrazin-3-yl)pyridin-2-amine], the IC50 at IRAK4 [1] is under 0.5 nM; against IRAK1 it was 92 nM; at IRAK4 [2], 0.8 nM.

Regarding `Cn1cc(-c2cn3c(-c4cccc(N[C@@H]5CCCNC5)n4)cnc3cn2)cn1` [Compound 43, (R)-6-(6-(1-methyl-1H-pyrazol-4-yl)imidazo[1,2-a]pyrazin-3-yl)-N-(piperidin-3-yl)pyridin-2-amine], the IC50 at IRAK4 [1] was found to be 84 nM; on IRAK1, 895 nM; on IRAK4 [2], 12 nM.

With `F[C@H]1CNC[C@@H]1Nc1cccc(-c2cnc3cnc(C4CC4)cn23)n1` [Compound 50, 6-(6-cyclopropylimidazo[1,2-a]pyrazin-3-yl)-N-((3S,4S)-4-fluoropyrrolidin-3-yl)pyridin-2-amine], the IC50 against IRAK4 [1] came out at 1 nM; against IRAK1, 113 nM; against IRAK4 [2], 0.6 nM.

On to `F[C@H]1CCNC[C@@H]1Nc1cccc(-c2cnc3cnc(C4CC4)cn23)n1` [Compound 51, 6-(6-cyclopropylimidazo[1,2-a]pyrazin-3-yl)-N-((3S,4S)-4-fluoropiperidin-3-yl)pyridin-2-amine], for which the IC50 on IRAK4 [1] stood at 0.6 nM; against IRAK1, 80 nM; at IRAK4 [2], 1 nM.

For the molecule `FC(F)COc1cn2c(-c3cccc(N[C@H]4CNC[C@@H]4F)n3)cnc2cn1` [Compound 58, 6-(6-(2,2-difluoroethoxy)imidazo[1,2-a]pyrazin-3-yl)-N-((3S,4S)-4-fluoropyrrolidin-3-yl)pyridin-2-amine], the IC50 is under 0.5 nM against IRAK4 [1], 117 nM at IRAK1 and 1 nM against IRAK4 [2].

Consider `O=S1(=O)CCCN1c1cn2c(-c3cccc(N[C@H]4CNCC[C@@H]4F)n3)cnc2cn1` [Compound 97, 2-(3-(6-(((3S,4S)-4-fluoropiperidin-3-yl)amino)pyridin-2-yl)imidazo[1,2-a]pyrazin-6-yl)isothiazolidine 1,1-dioxide], for which the IC50 against IRAK4 [1] came out at 0.9 nM; on IRAK1, 53 nM; against IRAK4 [2], 6 nM.

With `O=C1CCCN1c1cn2c(-c3nc(N[C@H]4CNCC[C@@H]4F)c(F)cc3F)cnc2cn1` [Compound 107, 1-[3-[3,5-difluoro-6-[[(3S,4S)-4-fluoro-3-piperidyl]amino]-2-pyridyl]imidazo[1,2-a]pyrazin-6-yl]pyrrolidin-2-one], the values for the IC50 on IRAK4 [1], against IRAK1 and on IRAK4 [2] were 10 nM, 130 nM and 38 nM, respectively.

On to `O=C1CCCN1c1cn2c(-c3nc(N[C@@H]4CCCNC4)c(F)cc3F)cnc2cn1` [Compound 108, (R)-1-(3-(3,5-difluoro-6-(piperidin-3-ylamino)pyridin-2-yl)imidazo[1,2-a]pyrazin-6-yl)pyrrolidin-2-one], for which the IC50 against IRAK4 [1] amounted to 1 nM; against IRAK1 it was 109 nM; at IRAK4 [2], 13 nM.

On to `O=C1CCCN1c1cn2c(-c3cccc(N[C@H]4CNCC[C@@H]4F)n3)cnc2cn1` [Compound 119, 1-(3-(6-(((3S,4S)-4-fluoropiperidin-3-yl)amino)pyridin-2-yl)imidazo[1,2-a]pyrazin-6-yl)pyrrolidin-2-one], for which the IC50 at IRAK4 [1] came to 2 nM; against IRAK1, 110 nM; at IRAK4 [2] it was 10 nM.

`O=C1CCCN1c1cn2c(-c3cccc(N[C@H]4CNC[C@@H]4F)n3)cnc2cn1` [Compound 121, 1-(3-(6-(((3S,4S)-4-fluoropyrrolidin-3-yl)amino)pyridin-2-yl)imidazo[1,2-a]pyrazin-6-yl)pyrrolidin-2-one]: the IC50 on IRAK4 [1] amounted to 2 nM; against IRAK1, 207 nM; against IRAK4 [2] it was 5 nM.

With `CC(C)(C)c1cn2c(-c3nc(N[C@H]4CNC[C@@H]4F)c(F)cc3F)cnc2cn1` [Compound 125], the IC50 is under 0.5 nM at IRAK4 [1], 51 nM on IRAK1 and 0.7 nM on IRAK4 [2].

For `CC(C)(C)c1cn2c(-c3nc(N[C@@H]4CCCNC4)c(F)cc3F)cnc2cn1` [Compound 126, (R)-6-(6-(tert-butyl)imidazo[1,2-a]pyrazin-3-yl)-3,5-difluoro-N-(piperidin-3-yl)pyridin-2-amine], the IC50 against IRAK4 [1] was under 0.5 nM; on IRAK1, 80 nM; on IRAK4 [2], 2 nM.

As to `CC(C)(C)c1cn2c(-c3nc(N[C@H]4CNCC[C@@H]4F)c(F)cc3F)cnc2cn1` [Compound 127, 6-(6-(tert-butyl)imidazo[1,2-a]pyrazin-3-yl)-3,5-difluoro-N-((3S,4S)-4-fluoropiperidin-3-yl)pyridin-2-amine], the figures for the IC50 on IRAK4 [1], against IRAK1 and at IRAK4 [2] were 0.4 nM, 60 nM and 2 nM, respectively.

Turning to `CC(C)(C)c1cn2c(-c3cccc(N[C@@H]4CCCNC4)n3)cnc2cn1` [Compound 129, (R)-6-(6-(tert-butyl)imidazo[1,2-a]pyrazin-3-yl)-N-(piperidin-3-yl)pyridin-2-amine], the IC50 is under 0.5 nM on IRAK4 [1], 97 nM against IRAK1 and 1 nM against IRAK4 [2].

Take `CC(C)(C)c1cn2c(-c3cccc(N[C@H]4CNCC[C@@H]4F)n3)cnc2cn1` [Compound 130, 6-(6-(tert-butyl)imidazo[1,2-a]pyrazin-3-yl)-N-((3S,4S)-4-fluoropiperidin-3-yl)pyridin-2-amine]: the IC50 on IRAK4 [1] was under 0.5 nM; against IRAK1, 49 nM; at IRAK4 [2], 3 nM.
